Measured values reported in ChEMBL document CHEMBL1201862, “PubChem BioAssay data set” (2004).
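Grown in 96-well plates, cells were treated for 48 hours with each compound at five concentrations. Insufficient inhibition: endpoint recorded as highest concentration tested. GI50 is the concentration that inhibits growth by half.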 The source made the active and inactive calls. No stated cut-off is given here; in the data, active = GI50 up to about 1.1 µM and inactive = higher.

Legend:
Assay in all cases: inhibition of tumour cell growth, NCI panel, 48 h
[1] = test system: SK-MEL-2
[2] = test system: 786-0
[3] = test system: HCC 2998
[4] = test system: HOP-62
[5] = test system: M14
[6] = test system: Hs-578T
[7] = test system: MOLT-4
[8] = test system: HL-60
[9] = test system: MDA-N
[10] = test system: ACHN
[11] = test system: K562
[12] = test system: SW-620
[13] = test system: OVCAR-3
[14] = test system: NCI/ADR-RES
[15] = test system: PC-3
[16] = test system: OVCAR-8
[17] = test system: MCF7
[18] = test system: SF-539
[19] = test system: UACC-62
[20] = test system: SR

Measured: GI50

O=C(/C=C1\Nc2ccccc2N=C1NC12CC3CC(CC(C3)C1)C2)c1ccc(Br)cc1
inactive: [1] > 10 µM | [2] > 10 µM | [3] > 10 µM | [4] > 10 µM | [5] > 10 µM | [6] > 10 µM | [7] > 10 µM | [8] > 10 µM | [9] > 10 µM | [10] > 10 µM | [11] > 10 µM | [12] > 10 µM | [13] > 10 µM | [14] > 10 µM | [15] > 10 µM | [16] > 10 µM | [17] > 10 µM | [18] > 10 µM | [19] > 10 µM

C1=N\CCNCC/N=C\c2ccc(cc2)OCc2cccc(n2)COc2ccc/1cc2
inactive: [1] 70.3 µM | [2] 40.2 µM | [20] > 100 µM | [4] 21.4 µM | [5] 77.6 µM | [6] 23.5 µM | [7] > 100 µM | [8] > 100 µM | [9] > 100 µM | [10] 29.7 µM | [11] > 100 µM | [12] > 100 µM | [13] > 100 µM | [14] 63.1 µM | [15] 78.2 µM | [16] 39.5 µM | [17] > 100 µM | [18] 47.1 µM | [19] > 100 µM

Cc1ccc(/C=C2\CCCc3ccccc3C2=O)cc1
inactive: [1] 2.38 µM | [2] 18 µM | [20] 13.9 µM | [4] 9.2 µM | [5] 3.21 µM | [6] 12.4 µM | [7] 17.7 µM | [8] 11.2 µM | [9] 1.86 µM | [10] 31.8 µM | [11] 12.2 µM | [12] 22.9 µM | [13] 15 µM | [14] 8.67 µM | [15] 14.7 µM | [16] 22.4 µM | [17] 18.3 µM | [18] 13.8 µM | [19] 9.51 µM

O=C1C(=C2SC(c3ccccc3)(c3ccccc3)c3ccccc32)C(=O)c2ccccc21
inactive: [2] > 100 µM | [20] 65.2 µM | [3] > 100 µM | [4] > 100 µM | [5] > 100 µM | [6] > 100 µM | [7] > 100 µM | [9] > 100 µM | [10] > 100 µM | [11] > 100 µM | [12] > 100 µM | [13] > 100 µM | [14] > 100 µM | [15] 82.4 µM | [16] > 100 µM | [17] > 100 µM | [18] > 100 µM | [19] > 100 µM

O=C(O)CCC(C(=O)O)N1C(=O)C2C3CCC(C3)C2C1=O (stereo not given)
inactive: [1] > 100 µM | [2] > 100 µM | [20] > 100 µM | [4] > 100 µM | [5] > 100 µM | [6] > 100 µM | [7] > 100 µM | [9] > 100 µM | [10] > 100 µM | [11] > 100 µM | [12] > 100 µM | [13] > 100 µM | [14] > 100 µM | [15] > 100 µM | [16] > 100 µM | [17] > 100 µM | [18] > 100 µM | [19] > 100 µM

Oc1ccc(CCNCc2cc3c(cc2Br)OCO3)cc1
inactive: [1] 21.7 µM | [2] 71 µM | [20] 32.4 µM | [4] 79.3 µM | [5] 38.1 µM | [6] > 100 µM | [7] 32.6 µM | [8] 28.1 µM | [9] 68.2 µM | [10] 95.5 µM | [11] 34.8 µM | [12] > 100 µM | [13] 30.1 µM | [14] 47.5 µM | [15] 46.9 µM | [16] > 100 µM | [17] 70.1 µM | [18] 4.17 µM | [19] 52.7 µM

CCOC(=O)C1(C(=O)OCC)C[C@H](C)[C@](C)(O)C1
inactive: [1] > 100 µM | [2] > 100 µM | [20] > 100 µM | [4] > 100 µM | [5] > 100 µM | [6] > 100 µM | [7] > 100 µM | [8] 37.8 µM | [9] > 100 µM | [10] > 100 µM | [11] > 100 µM | [12] > 100 µM | [13] > 100 µM | [14] > 100 µM | [15] > 100 µM | [16] > 100 µM | [17] > 100 µM | [18] > 100 µM | [19] > 100 µM

O=C1Oc2ccccc2C(=O)/C1=C/N1C(=O)CNC1=S
inactive: [1] > 100 µM | [2] > 100 µM | [3] > 100 µM | [4] > 100 µM | [5] > 100 µM | [6] > 100 µM | [7] > 100 µM | [8] 44 µM | [9] > 100 µM | [10] 56.8 µM | [11] > 100 µM | [12] > 100 µM | [13] > 100 µM | [14] > 100 µM | [15] > 100 µM | [16] > 100 µM | [17] > 100 µM | [18] > 100 µM | [19] > 100 µM
